The test has as its system Spodoptera littoralis. Briefly: Insecticidal activity against Spodoptera littoralis after 6 days. In kind it is functional, organism-based.

Active and inactive are the calls of the source. No cut-off for these calls is given here.

`CC1=CC(O)N(CCCCNC(=O)/C=C/c2ccccc2)C1=O` (configuration not stated): the outcome was inactive. To `C=C(C(=O)NCCCCNC(=O)/C=C/c1ccccc1)[C@@H](O)CO` belongs “inactive”.
